Measurements reported in ChEMBL document CHEMBL3507680, “University of Dundee, Gates Library screen for HepG2 cell viability”.

Test: Human HepG2 cell viability assay in 384 well format
Type: toxicity, cell-based
Design: dose 125 nL, time 70.5 hour; cytotoxicity at 70.5 h: concentration not given beside the values
Conditions: HepG2 cells, read-out: Inhibition

| Compound | cytotoxicity at 70.5 h [%] |
| --- | --- |
| C1CCC(OCCN2CCN(CCOC3CCCCC3)CC2)CC1 | -5.88 |
| COc1ccc(-n2cnnc2CC2CCNCC2)cc1 | 1.1 |
| CCN1CCc2[nH]cnc2C12CCN(c1ccc(Cl)cn1)CC2 | -4.3 |
| CCCN1CC2(CCN(C)CC2)CC1C(=O)NCc1cc(C)nn1C (stereo not given) | -12.4 |
| CCC(=O)Nc1cccc(OCC(=O)N2CC=CC2C(C)C)c1 (stereo not given) | -22.1 |
| Cc1nonc1CN(C)c1nc(-c2ccco2)nc2c1CCN(C)CC2 | -8.33 |
| Cn1nnnc1SCCNC(=O)c1c[nH]nc1C1CCCCC1 | -9.31 |
| O=C(CCc1nc(Cl)n[nH]1)N1C[C@@H](CN2CCCCCC2)[C@@H](CO)C1 | -4.12 |
| CCn1ccnc1C1CCCN(C(=O)c2sc(C)nc2C)C1 (stereo not given) | -7.2 |
| Cc1ccsc1CN(CCN(C)C)C(=O)C1=NNC(=O)CC1 | -9.85 |
| Cc1nc(N2CCCC(C)C2)nc2cc(S(C)(=O)=O)ccc12 (stereo not given) | -2.18 |
| CCn1cc(C2=CCN(CCCOc3ccccc3)CC2)cn1 | 0.137 |
| CC1(C)OC(=O)N(CCOc2ccc(F)cc2)C1=O | -4.69 |
| Cc1cc(CN(C)C(=O)C(c2cccnc2)N2CCOCC2)n[nH]1 (stereo not given) | -10.1 |
| CC(Oc1ccc2c(c1)OCO2)C(=O)N1CCC(c2ncc[nH]2)CC1 (stereo not given) | -8.64 |
| O=C(NC1CCCC1)N1C[C@H]2CN(c3ccccn3)C[C@@]2(C(=O)O)C1 | 6.72 |
| Cc1nc(N(C)C)ncc1C(=O)N(Cc1ccncc1)CC1CCCO1 (stereo not given) | -4.9 |
| CCc1nnc(CN(C)Cc2cccc(C(=O)Nc3nccs3)c2)o1 | -1.25 |
| NCC1Cc2cc(-c3nccc(N4CCC(O)CC4)n3)cc(F)c2O1 (stereo not given) | 6.33 |
| Cc1ccccc1CN1CCN(C(=O)CN2CCOC2=O)CC1 | -6.85 |
| Cc1nc(CN2CCC(c3nc4ccccc4n3C)CC2)co1 | -24.4 |
| CN1C(=O)[C@H]2CC[C@@H]1CN(Cc1cccc(OCc3ccccn3)c1)C2 | -11.5 |

| Compound | cytotoxicity at 70.5 h [%] |
| --- | --- |
| CCc1nn(C)c(Cl)c1CN1CCN(c2ccc(Cl)nn2)CC1 | 13.1 |
| Cc1ccc(-c2cc(-c3c(C)nn(CCO)c3C)c(C#N)c(N)n2)cc1 | 0.809 |
| CC(C)CN1CC2(CCN(C(=O)C3CNC(=O)N3)CC2)CC1=O (stereo not given) | -9.7 |
| CCc1ccc2nc(C)cc(C(=O)N3C[C@H]4CCC[C@@]4(CO)C3)c2c1 | -8.92 |
| O=C(NCC1CCS(=O)(=O)C1)c1ccc2cccc(Cl)c2n1 (stereo not given) | -5.5 |
| Fc1ccc(C2(c3noc(CCN4CCCCO4)n3)CCOC2)cc1 (stereo not given) | -11.7 |
| O=C1NCC(c2ccc(F)cc2)Cc2[nH]c(CCN3CCCC3)nc21 (stereo not given) | -20.9 |
| COCCN(Cc1nccs1)C(=O)c1cc(-c2ccc(C)o2)n[nH]1 | -11.2 |
| Cc1cc(NCc2ccc(CO)cc2)n2nc(C)cc2n1 | -0.853 |
| CCCc1cncnc1N1CCC(NCc2cc3ccccc3[nH]2)CC1 | 8.09 |
| Cc1cc(NC(C)c2csc(C)n2)n2nc(C)c(C)c2n1 (stereo not given) | 5.97 |
| CN(CC1(CO)CCCC1)[C@@H]1c2ccccc2C2(CCNCC2)[C@H]1O | -3.86 |
| CC(=O)c1c(C)nn(CC(=O)N2Cc3cnc(C(C)(C)C)nc3C2)c1C | -5.26 |
| COCCOCC(=O)N1CCC(O)(c2ccc3nc(C)ccc3c2)CC1 | -5.95 |
| CCCc1cc(C(=O)N(C)Cc2cnn(-c3cccc(OC)c3)c2)[nH]n1 | -6.08 |
| CN(Cc1cc(C2CC2)on1)C(=O)CN1C(=O)OC(C)(C)C1=O | 0.377 |
| OC[C@H]1CN(Cc2c(Cl)cccc2Cl)C[C@H]1CN1CCCCC1 | 7.58 |
| Fc1ccccc1CN1CCCC(NC2CCOCC2)C1 (stereo not given) | -9.48 |
| CCc1nc(C)sc1CN1C[C@@H](C)[C@@](C)(O)C1 | -11.2 |
| COc1ccccc1-n1cc(C(=O)NCCCn2nc(C)nc2C)cn1 | -9.68 |
| COCCN1CCCC2(CCN(c3ncc(Cl)cc3Cl)C2)C1=O (stereo not given) | -11 |
| Cc1cc(C(F)(F)F)nc(CCNc2nc(C)nc3c2cnn3C)n1 | -4.44 |

| Compound | cytotoxicity at 70.5 h [%] |
| --- | --- |
| Cc1nccn1C1(C(=O)O)CCN(Cc2ccc3nsnc3c2)CC1 | -7 |
| COc1ccc(C(C(=O)O)N2CCC(O)(c3cccnc3)CC2)cc1Cl (stereo not given) | -9.89 |
| COCCN1CC(C(=O)N(C)Cc2csc(C)n2)CC1=O (stereo not given) | 9.18 |
| CC1=CCN(C(=O)Nc2ccccc2N2CCOC2=O)CC1 | 0.848 |
| CCc1ncc(C(=O)NCCN(C)S(C)(=O)=O)cn1 | 17.2 |
| CC(C)N(C)CC(=O)N1CCCC(c2ccc(C(=O)O)cc2)C1 (stereo not given) | -5.3 |
| COc1nc2c(cc1C(=O)N1C[C@H](N)C[C@H]1C(=O)NC(C)C)CCC2 | -4.1 |
| O=C(c1ccc(F)c(Cl)c1)N1C[C@@H]2CC[C@H](C1)N(Cc1ccccc1)C2 | -5.41 |
| CN(CCO)Cc1nnc(C2CCN(C(=O)C(C)(C)C)CC2)n1C | -4.92 |
| COc1cccc(N2CCN(C(=O)C(O)c3cccc(Cl)c3)CC2=O)c1 (stereo not given) | 6.54 |
| Cn1ncc2c(N3CCN(C(N)=O)CC3)nc(C3CCCC3)nc21 | 16.3 |
| COc1ccc(C2CC(=O)Nc3c2nc2n3CCCC2)cc1OC (stereo not given) | 8.63 |
| CSc1cccc(CN(C)C(=O)C2CC(=O)N(CCN(C)C)C2)c1 (stereo not given) | 5.8 |
| CCCN(C)C(=O)c1ccc2c(c1)[nH]c(=O)n2CCOCC | 13.7 |
| CSCC[C@H](N)C(=O)NCc1cc2n(n1)CCCN(C(=O)C1CCC1)C2 | -4.43 |
| CC(C)(O)C1CCN(C(=O)Nc2nc(-c3ccccc3)ns2)CC1 | -4.79 |
| CC(=O)N1CCCn2nc(CNS(=O)(=O)N3CCCCCC3)cc2C1 | -10.6 |
| Fc1ccccc1-c1noc2c1CN(CC1CC1)CC2 | -3.89 |
| COc1ccc(C(C(=O)O)N2CCCN(C3CCCC3)CC2)cc1OC (stereo not given) | 18.5 |
| O=C(c1ccccn1)N1CCCC(c2nccn2Cc2ccncc2)C1 (stereo not given) | -4.69 |
| O=C(CCc1cc2n(n1)CCCN(C(=O)c1cccnc1)C2)NC1CC1 | -2.07 |
| CCn1ccnc1CN1CCC(CNC(=O)c2ccc(C)nc2)C1 (stereo not given) | -9.04 |

| Compound | cytotoxicity at 70.5 h [%] |
| --- | --- |
| O=C(c1cc(=O)[nH]c(=O)[nH]1)N1CCCCC1c1ccc(F)cc1 (stereo not given) | -6.94 |
| COc1ccccc1OCc1cc(C(=O)N2CC(O)C2)n[nH]1 | -4.48 |
| CNc1nc2c(c(C(=O)N3CCCC3)n1)CN(Cc1nccn1C)CC2 | -10.9 |
| CSCC(=O)N1C[C@H]2CC[C@@H]1CN(Cc1ccccc1)C2 | -3.17 |
| COCC1CCN(C(=O)c2cccc(S(=O)(=O)NCC3(C)COC3)c2)C1 (stereo not given) | -3.93 |
| CC(C)NS(=O)(=O)c1cc(C(=O)O)cc(-c2ccccc2CN(C)C)c1 | -1.54 |
| CC(C)c1ncc(S(C)(=O)=O)c(C2CCCNC2)n1 (stereo not given) | -7.47 |
| Clc1ccccc1C1(c2ccnc(-c3ncccn3)n2)CCNCC1 | -12.3 |
| CC(C(=O)N1CCCC1)N1CCC(c2nccn2Cc2cscn2)CC1 (stereo not given) | -9.41 |
| COC(=O)c1cc(OCC2CCC2)cc(C(=O)N[C@H]2CC[C@H](O)CC2)c1 | 15.3 |
| CCc1ncc2c(n1)CN(C(=O)COC)C2 | -4.18 |
| COc1cccc(CCC2CCCN(C(=O)c3n[nH]c4c3CCC4)C2)c1 (stereo not given) | 0.453 |
| CC(CN1CCCC1)C(=O)N1CCC(c2nccn2CC2CC2)CC1 (stereo not given) | 12.9 |
| Cc1ccsc1[C@@H]1CCN(C(=O)CCC(=O)N2CCCCCC2)C[C@H]1O | 0.789 |
| CC(C)n1ccnc1C1CCN(C(=O)c2ccccc2)CC1 | 20.7 |
| O=C(CCc1cc(O)no1)N1CCCC(COc2ccc(F)cc2)C1 (stereo not given) | -3.78 |
| CCCN1CCN(C(=O)c2cnccn2)[C@H]2CS(=O)(=O)C[C@H]21 | -0.654 |
| O=C(COCc1ccccc1)N1CCC(OCc2cccnc2)CC1 | -3.09 |
| Cc1cccnc1CNCC1(O)CCCN(CC2CCCCC2)C1=O (stereo not given) | -7.77 |
| CCc1cc(N[C@H]2CC[C@H](O)CC2)n2nc(C)c(C)c2n1 | -0.423 |
| Cc1ccc(OC2(C(=O)O)CCN(C(=O)c3ccc(F)cc3)CC2)cn1 | -7.2 |
| CC(C)c1ncc(CN2C[C@@H](CN3CCC(CO)CC3)[C@@H](CO)C2)cn1 | -6.31 |

| Compound | cytotoxicity at 70.5 h [%] |
| --- | --- |
| Nc1nc2c(c(=O)[nH]1)CCN(C(=O)c1cccc3nccnc13)C2 | -13.2 |
| CC(=O)c1ccc(N2CCCC(CO)(CCOc3ccccc3)C2)nc1 (stereo not given) | -13.1 |
| CC(C)c1nccn1CCCNC(=O)c1ccc(-c2cncnc2)nc1 | -9.84 |
| NC(=O)c1cccc(CC2CCN(C(=O)CCCN3CCOCC3)C2)c1 (stereo not given) | -4.93 |
| Nc1nccc(NCc2cc3n(n2)CCCN(C2CCCCC2)C3)n1 | -1.68 |
| Cc1nc(CN2CCCC(Cn3cc(CCO)nn3)C2)c[nH]1 (stereo not given) | -1.03 |
| Cc1ccccc1N1CCCN(C(=O)CCCS(N)(=O)=O)CC1 | 15.2 |
| Cc1nc2c(c(N3CC=CC3)n1)CCN(Cc1ccoc1)CC2 | -2.75 |
| Cc1nccn1CCC1CCCCN1Cc1ccncc1 (stereo not given) | 3.75 |
| O=C(O)c1coc(COc2cccc(F)c2)n1 | -4.11 |
| COc1ccc(F)c(CN2CCC3(CCC(=O)N(CC(N)=O)C3)CC2)c1 | 5.8 |
| CN(C)C(=O)NCc1cc2n(n1)CCN(C[C@H]1[C@@H]3CNC[C@@H]31)C2 | 15.7 |
| CC(C)n1ccnc1C1CCN(Cc2ccc(Cl)s2)CC1 | -8.66 |
| CCC(=O)N1CC[C@@H](c2ccc3ccccc3c2)[C@H](O)C1 | -10.5 |
| Cn1c(CN2CCOCC2)nnc1C1CCN(C(=O)C2CCCC2)CC1 | 2.41 |
| CCc1cnc(C)nc1NCCN1CCCCCC1 | -11.6 |
| Cc1ncccc1OCC(=O)N1CCN[C@H]2CS(=O)(=O)C[C@H]21 | -11.5 |
| CC(=O)N1CCN(c2cc(-c3ccccc3)nc3c(C)c(C)nn23)CC1 | 0.357 |
| CC1CCN(S(=O)(=O)NCC2CCOc3ccccc3C2)CC1 (stereo not given) | -7.61 |
| CC(C)C1CN(c2ncccn2)CCC(=O)N1Cc1ccc(F)cc1 (stereo not given) | 1.56 |
| CC(=O)Nc1cccc(C(=O)Nc2cnc3n2CCCC3)c1 | -5.75 |
| COc1ccccc1CN(C)c1nccc(-c2cn(C)nc2C)n1 | -8.86 |
